Laboratory results taken from the supplement of paper PMC5908809.

Tests used:
[1] = test system: normal NK cells expanded with K562-aAPC; test: percent inhibition of viability; higher = more inhibition; conditions: 72 h, IL-2 2.5 ng/mL
Description: (§1)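 Drug sensitivity and resistance testing on K562-aAPC-expanded normal NK cells: 5 concentrations (10-fold steps over a 10,000-fold range), 72 h at 37 °C, viability by CellTiter-Glo normalised to DMSO and benzethonium chloride controls; DSS from the fitted curve.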

[2] = test system: DERL-7 (IL-2 2.5 ng/mL); test: as above; conditions: 72 h
[3] = test system: IMC-1 (IL-2 20 ng/mL); test: as above; conditions: 72 h
[4] = test system: KAI3 (IL-2 2.5 ng/mL); test: as above; conditions: 72 h
[5] = test system: KHYG-1 (IL-2 2.5 ng/mL); test: as above; conditions: 72 h
[6] = test system: NK-92 (IL-2 2.5 ng/mL); test: as above; conditions: 72 h
[7] = test system: NK-YS (IL-2 2.5 ng/mL); test: as above; conditions: 72 h
[8] = test system: NKL (IL-2 2.5 ng/mL); test: as above; conditions: 72 h
[9] = test system: SNK-6 (IL-2 2.5 ng/mL); test: as above; conditions: 72 h
[10] = test system: YT (IL-2 2.5 ng/mL); test: as above; conditions: 72 h
[11] = test system: normal primary NK cells, pool 1 (3 donors) (IL-2 2.5 ng/mL); test: as above; conditions: 72 h
[12] = test system: normal primary NK cells, pool 1 (3 donors), resting (IL-2 0 ng/mL); test: as above; conditions: 72 h
[13] = test system: normal primary NK cells, pool 2 (3 donors) (IL-2 2.5 ng/mL); test: as above; conditions: 72 h
[14] = test system: normal primary NK cells, pool 3 (3 donors) (IL-2 2.5 ng/mL); test: as above; conditions: 72 h
[15] = test system: normal NK cells expanded with K562-aAPC; test: drug sensitivity score (DSS) (DSS units); higher = more sensitive; extreme values may be limits of the assay; conditions: 72 h; IL-2 2.5 ng/mL
Description: as §1

[16] = test system: DERL-7 (IL-2 2.5 ng/mL); test: as above; conditions: 72 h
[17] = test system: IMC-1 (IL-2 20 ng/mL); test: as above; conditions: 72 h
[18] = test system: KAI3 (IL-2 2.5 ng/mL); test: as above; conditions: 72 h
[19] = test system: KHYG-1 (IL-2 2.5 ng/mL); test: as above; conditions: 72 h
[20] = test system: NK-92 (IL-2 2.5 ng/mL); test: as above; conditions: 72 h
[21] = test system: NK-YS (IL-2 2.5 ng/mL); test: as above; conditions: 72 h
[22] = test system: NKL (IL-2 2.5 ng/mL); test: as above; conditions: 72 h
[23] = test system: SNK-6 (IL-2 2.5 ng/mL); test: as above; conditions: 72 h
[24] = test system: YT (IL-2 2.5 ng/mL); test: as above; conditions: 72 h
[25] = test system: normal primary NK cells, pool 1 (3 donors) (IL-2 2.5 ng/mL); test: as above; conditions: 72 h
[26] = test system: normal primary NK cells, pool 1 (3 donors), resting (IL-2 0 ng/mL); test: as above; conditions: 72 h
[27] = test system: normal primary NK cells, pool 2 (3 donors) (IL-2 2.5 ng/mL); test: as above; conditions: 72 h
[28] = test system: normal primary NK cells, pool 3 (3 donors) (IL-2 2.5 ng/mL); test: as above; conditions: 72 h

CNc1nc(-c2ccc3c(N)n[nH]c3c2)cc(N2C[C@@H](C(=O)NC3CCCCC3)CC[C@H]2C)n1 (max concentration tested 10000 nM)
percent inhibition of viability [%]
Conditions	1 nM	10 nM	100 nM	1000 nM	10000 nM
[1]	-0.16	0.82	7.33	29	34.4
[2]	-6.71	4.6	17.5	62.3	73.1
[3]	-3.83	-6.62	-4.53	-20.3	-19.2
[4]	5.2	2.8	14.8	12.4	22.3
[5]	2.18	-0.82	1.06	6.54	6.11
[6]	-8.7	-9.38	-10.8	12.7	15.9
[7]	-0.39	1.82	1.37	11.8	12.3
[8]	-8.02	-17.1	-8.23	7.46	19
[9]	-15.1	-5.82	-4.32	-18.6	-16.6
[10]	0.91	-0.65	-0.96	-0.24	-1.61
[11]	-8.1	-7.19	-3.29	25.5	14.9
[12]	-13.3	-12.7	-3.91	21.5	9.91
[13]	-9.37	-17	-3.8	12.4	20.9
[14]	-9.17	-11.9	-6.95	18.4	14.4

Conditions	drug sensitivity score
[15]	5.66
[16]	13.6
[17]	0
[18]	2.49
[19]	0
[20]	1.22
[21]	0.64
[22]	1.31
[23]	0
[24]	0
[25]	3.79
[26]	2.84
[27]	1.91
[28]	2.05

Cn1cc(CNCC2CCN(c3ncc(C(=O)NO)cn3)CC2)c2ccccc21 [Quisinostat] (max concentration tested 1000 nM)
percent inhibition of viability [%]
Conditions	0.1 nM	1 nM	10 nM	100 nM	1000 nM
[1]	-4.41	2.67	27.3	98.9	99.5
[2]	4.2	1.75	46.9	99.6	99.1
[3]	-4.98	-0.52	-8.31	99.6	99.7
[4]	-2.72	8.43	36.8	88.8	97.3
[5]	-1.89	-1.8	12.5	99.3	97.8
[6]	-10.6	-6.5	15.2	70.9	93.4
[7]	-1.23	0.57	20.6	92.9	97.7
[8]	-9.03	-1.25	43.9	99.4	96.7
[9]	1.8	20.8	-18.7	56.4	99.2
[10]	0.16	-4.15	0.59	77.7	97.8
[11]	-12.9	4.2	58.6	97.3	96.1
[12]	-8.56	21.3	79	90.3	90
[13]	-0.78	3.43	67.6	93.8	93.9
[14]	-2.24	-1.5	32.9	96.6	97.4

Conditions	drug sensitivity score
[15]	21.9
[16]	23.7
[17]	17.2
[18]	20.6
[19]	19.9
[20]	15.1
[21]	19.7
[22]	23.6
[23]	12.2
[24]	14.3
[25]	24.6
[26]	28.6
[27]	25.2
[28]	22.2
